Test results reported in US4863925A, “Cyclohexanedione derivative for hepatic disorders and a process for producing the same” (Nihon Nohyaku Co., Ltd., priority 1986, dated 1989).

Test system: hepatic disorder caused by carbon tetrachloride
Test: Effect of suppressing hepatic disorder caused by carbon tetrachloride (Test Example 1)
Type: in vivo, mice (dd-strain, male)
Parameters: key to Liver injury index: 0 = healthy, 2 = slight, 4 = evident injury, 6 = serious injury
Details: 30 mg/kg p.o., 6 h before CCl4 0.05 ml/kg p.o., 24 h after CCl4, mean of five mice; for Liver injury index: 0 healthy, 2 slightly affected, 4 evidently observed injury, 6 serious injury; for P-GPT (plasma glutamic pyruvic transaminase activity): Reitman-Frankel, 2,000 or higher calculated as 2,000
Procedure: Effect of suppressing hepatic disorder caused by carbon tetrachloride. […] The animals were sacrificed 24 hours after the administration of carbon tetrachloride, and the extent of liver injury was examined. On the other hand, blood was collected from the animal at the time of the sacrifice, and centrifuged to obtain plasma. The plasma glutamic pyruvic transminase (GPT) activity was determined according to the method of Reitman-Frankel. The activity was expressed in terms of Karmen Units (K.U.). The conditions of the liver were expressed in terms of liver injury index as follows. |Liver injury index | Condition of liver |0 Healthy liver |2 Slightly affected |4 Evidently observed injury |6 Serious injury Mice were used in groups of five of test were represented by the mean value. When the GPT activity was 2,000 units or higher, or further determination was made, the activity was calculated as 2,000 units for reasons of convenience.

Row | Structure (SMILES) | Liver injury index | P-GPT (plasma glutamic pyruvic transaminase activity)
1 | CN1CCNC2SC(=C3C(=O)CC(c4ccco4)CC3=O)SC21 (stereo not shown) [compound 108] | 1.0 | 24 K.U.
2 | Cc1ccc(C2CC(=O)C(=C3SC4NCC(C)NC4S3)C(=O)C2)cc1 (stereo not shown) [compound 78] | 0.2 | 18 K.U.
3 | CN1CCN(C)C2SC(=C3C(=O)CC(C4CCCCC4)CC3=O)SC21 (stereo not shown) [compound 80] | 1.0 | 405 K.U.
4 | COc1cccc(C2CC(=O)C(=C3SC4C(S3)N(C)CCN4C)C(=O)C2)c1 (stereo not shown) [compound 52] | 0.1 | 14 K.U.
5 | CN1CCNC2SC(=C3C(=O)CC(c4cccs4)CC3=O)SC21 (stereo not shown) [compound 109] | 0 | 17 K.U.
6 | COc1ccc(C2CC(=O)C(=C3SC4C(S3)N(C)CCN4C)C(=O)C2)cc1 (stereo not shown) [compound 122] | 1.5 | 231 K.U.
7 | CN1CCN(C)C2SC(=C3C(=O)CC(C)(C)CC3=O)SC21 (stereo not shown) [Compound No. 4] | 0 | 11 K.U.
8 | CCCN1CCN(CCC)C2SC(=C3C(=O)CCCC3=O)SC21 (stereo not shown) [compound 10] | 0 | 41 K.U.
9 | CCN1CCN(CC)C2SC(=C3C(=O)CCCC3=O)SC21 (stereo not shown) [Compound No. 2] | 0.4 | 15 K.U.
10 | CN1CCNC2SC(=C3C(=O)CC(C)(C)CC3=O)SC21.Cl.Cl (stereo not shown) [compound 118, 2-[2-methyl-2,5-diaza-7,9-dithiabicyclo-(4,3,0)-nonane-8-ylidene]-5,5-dimethyl-1,3-cyclohexanedione dihydrochloride salt] | 0 | 32 K.U.
11 | C=CCN1CCN(CC=C)C2(C)SC(=C3C(=O)CC(C)(C)CC3=O)SC12 (stereo not shown) [compound 106] | 1.2 | 242 K.U.
12 | CCN1CCN(CC)C2SC(=C3C(=O)CC(C)(C)CC3=O)SC21 (stereo not shown) [compound 6] | 0 | 19 K.U.
13 | Cc1ccc(C2CC(=O)C(=C3SC4C(S3)N(C)CCN4C)C(=O)C2)cc1 (stereo not shown) [Compound No. 43] | 0.2 | 24 K.U.
14 | CN1CCN(C)C2(C)SC(=C3C(=O)CC(c4ccco4)CC3=O)SC12 (stereo not shown) [compound 90] | 0 | 15 K.U.
15 | Cc1ccc(C2CC(=O)C(=C3SC4N(C)CCN(C)C4(C)S3)C(=O)C2)cc1 (stereo not shown) [compound 47] | 0 | 24 K.U.
16 | CCCN1CCN(CCC)C2SC(=C3C(=O)CC(c4ccccc4)C(C(=O)OCC)C3=O)SC21 (stereo not shown) [compound 114] | 2.2 | 26 K.U.
17 | CCOc1ccc(C2CC(=O)C(=C3SC4C(S3)N(CC)CCN4CC)C(=O)C2)cc1 (stereo not shown) [compound 61] | 1.5 | 494 K.U.
18 | CCOc1ccc(C2CC(=O)C(=C3SC4N(C)CCN(C)C4(C)S3)C(=O)C2)cc1 (stereo not shown) [compound 63] | 0 | 15 K.U.
19 | CN1CCN(C)C2SC(=C3C(=O)CC(c4ccccc4)CC3=O)SC21 (stereo not shown) [compound 26, 2-[2,5-dimethyl-2,5-diaza-7,9-dithiabicyclo(4,3, 0)-nonane-8-ylidene]-5-phenyl-1,3-cyclohexanedione] | 0 | 12 K.U.

Row | Structure (SMILES) | Liver injury index | P-GPT (plasma glutamic pyruvic transaminase activity)
20 | CCCN1CCN(CCC)C2SC(=C3C(=O)CC(c4ccccc4)CC3=O)SC21 (stereo not shown) [compound 28] | 0.2 | 39 K.U.
21 | CCOC(=O)C1C(=O)C(=C2SC3C(S2)N(C)CCN3C)C(=O)CC1c1ccc(OCC)cc1 (stereo not shown) [compound 115] | 0 | 39 K.U.
22 | CN1CCN(C)C2SC(=C3C(=O)CC(c4ccco4)CC3=O)SC21 (stereo not shown) [Compound No. 79] | 0 | 30 K.U.
23 | CN1CCN(C)C2(C)SC(=C3C(=O)CC(C)(C)CC3=O)SC12 (stereo not shown) [compound 12, 2-[1,2,5-trimethyl-2,5-diaza-7,9-dithiabicyclo(4.3.0)-nonane-8-ylidene]-5,5-dimethyl-1,3-cyclohexanedione] | 0.4 | 33 K.U.
24 | CN1CCN(C)C2SC(=C3C(=O)CC(c4cccs4)CC3=O)SC21 (stereo not shown) [compound 82, 2-[2,5-dimethyl-2,5-diaza-7,9-dithiabicyclo-(4.3.0)-nonane-8-ylidene]-5-(2-thienyl)-1,3-cyclo hexanedione] | 0.3 | 16 K.U.
25 | CCOc1ccc(C2CC(=O)C(=C3SC4C(S3)N(C)CCN4C)C(=O)C2)cc1 (stereo not shown) [compound 60] | 0.1 | 26 K.U.
26 | CCN1CCN(CC)C2SC(=C3C(=O)CC(c4ccc(OC)cc4)CC3=O)SC21 (stereo not shown) [compound 56] | 2.5 | 50 K.U.
27 | COc1ccc(C2CC(=O)C(=C3SC4C(S3)N(C)CCN4C)C(=O)C2)cc1OC (stereo not shown) [compound 65] | 1.6 | 347 K.U.
28 | COc1ccc(C2CC(=O)C(=C3SC4N(C)CCN(C)C4(C)S3)C(=O)C2)cc1 (stereo not shown) [compound 59] | 0.1 | 16 K.U.
29 | CN1CCN(C)C2SC(=C3C(=O)CCCC3=O)SC21 (stereo not shown) [compound 1] | 0.2 | 14 K.U.
30 | CCC(C)C1CC(=O)C(=C2SC3C(S2)N(C)CCN3C)C(=O)C1 (stereo not shown) [compound 21] | 0.1 | 23 K.U.
31 | CC1(C)CC(=O)C(=C2SC3NCCNC3(C)S2)C(=O)C1 (stereo not shown) [compound 111] | 1.0 | 14 K.U.
32 | CN1CCN(C)C2SC(=C3C(=O)CC(c4ccc(F)cc4)CC3=O)SC21 (stereo not shown) [compound 36] | 1.5 | 268 K.U.
33 | CCOC(=O)C1C(=O)C(=C2SC3C(S2)N(C)CCN3C)C(=O)CC1c1ccc(OC)cc1 (stereo not shown) [compound 103] | 1.0 | 18 K.U.
34 | Cc1ccccc1C1CC(=O)C(=C2SC3C(S2)N(C)CCN3C)C(=O)C1 (stereo not shown) [compound 41] | 0.4 | 213 K.U.
35 | CC1CC(=O)C(=C2SC3C(S2)N(C)CCN3C)C(=O)C1 (stereo not shown) [compound 18] | 1.2 | 22 K.U.
36 | COc1ccc(C2CC(=O)C(=C3SC4NCCNC4S3)C(=O)C2)cc1 (stereo not shown) [Compound No. 53] | 0.1 | 13 K.U.
37 | CCCN1CCN(CCC)C2SC(=C3C(=O)CC(C)(C)CC3=O)SC21 (stereo not shown) [Compound No. 7] | 0 | 16 K.U.
38 | CCOC(=O)C1C(=O)C(=C2SC3C(S2)N(C)CCN3C)C(=O)CC1c1ccccc1Cl (stereo not shown) [compound 104] | 1.7 | 345 K.U.
